Assays:
[1] = system: SKOV3: human ovarian carcinoma cell line; experiment: Proliferation IC50 assay, oxic/hypoxic, SKOV3; type: cell-based; conditions: Table 3; for IC50: 4 h exposure under aerobic conditions; for HCR (hypoxic cytotoxicity ratio) SKOV3: IC50(aerobic)/IC10(hypoxic)
[2] = system: HT29: human colon cancer cell line; experiment: Proliferation IC50 assay, oxic/hypoxic, HT29; type: cell-based; conditions: Table 3; for IC50: 4 h exposure under aerobic conditions; for HCR (hypoxic cytotoxicity ratio) HT29: IC50(aerobic)/IC10(hypoxic)

Structure (SMILES)	IC50 [1]	HCR (hypoxic cytotoxicity ratio) SKOV3 [1]	IC50 [2]	HCR (hypoxic cytotoxicity ratio) HT29 [2]	IC50 ([1]; Homo sapiens, SK-OV-3)	IC50 ([2]; Homo sapiens, HT-29)
CC(=O)c1cccc2c3c(cc([N+](=O)[O-])c12)N(C(=O)c1cc2cc(OCCN(C)C)ccc2[nH]1)CC3CCl (stereo not drawn) [Compound 4]	0.64 µM	12	0.2 µM	5.2	–	–
CN(C)CCOc1ccc2[nH]c(C(=O)N3CC(CCl)c4c3cc([N+](=O)[O-])c3cc([N+](=O)[O-])ccc43)cc2c1 (stereo not drawn) [Compound 9, 1-(Chloromethyl)-3-{5-[2-(dimethylamino)ethoxy]indol-2-carbonyl}-5,7-dinitro-1,2-dihydro-3H-benzo[e]indole]	–	9.3	–	9.6	1.1 µM	0.89 µM
CN(C)CCOc1ccc2[nH]c(C(=O)N3CC(CCl)c4c3cc([N+](=O)[O-])c3cc(C(=O)NCCO)ccc43)cc2c1 (stereo not drawn) [Compound 19, 1-(Chloromethyl)-3-(5-[2-(dimethylamino)ethoxy]indol-2-carbonyl)-N-(2-hydroxyethyl)-5-nitro-1,2-dihydro-3H-benzo[e]indole-7-carboxamide]	–	160	–	490	8.9 µM	12 µM
COc1cc2cc(C(=O)N3CC(CCl)c4c3cc([N+](=O)[O-])c3cc(C#N)ccc43)[nH]c2c(OC)c1OC (stereo not drawn) [Compound 21]	6.4 µM	13	5.3 µM	2.5	–	–
COc1cc2cc(C(=O)N3CC(CCl)c4c3cc([N+](=O)[O-])c3cc(S(N)(=O)=O)ccc43)[nH]c2c(OC)c1OC (stereo not drawn) [Compound 25, 1-(Chloromethyl)-5-nitro-3-(5,6,7-trimethoxyindol-2-carbonyl)-1,2-dihydro-3H-benzo[e]indole-7-sulfonamide]	–	10	–	3.6	37 µM	43 µM
CN(C)CCOc1ccc2[nH]c(C(=O)N3CC(CCl)c4c3cc([N+](=O)[O-])c3cc(S(=O)(=O)NO)ccc43)cc2c1.Cl (stereo not drawn) [Compound 30, 1-(Chloromethyl)-3-{5-[2-(dimethylamino)ethoxy]indol-2-carbonyl}-N-hydroxy-5-nitro-4,2-dihydro-3H-benzo[e]indole-7-sulfonamide hydrochloride]	24 µM	55	24 µM	160	–	–
CN(C)CCOc1ccc2[nH]c(C(=O)N3CC(CCl)c4c3cc([N+](=O)[O-])c3cc(S(=O)(=O)NN)ccc43)cc2c1.Cl.Cl (stereo not drawn) [Compound 31, 1-(Chloromethyl)-3-{5-[2-(dimethylamino)ethoxy]indol-2-carbonyl}-5-nitro-1,2-dihydro-3H-benzo[e]indole-7-sulfonohydrazide dihydrochloride]	–	160	–	220	33 µM	31 µM
CNS(=O)(=O)c1ccc2c3c(cc([N+](=O)[O-])c2c1)N(C(=O)c1cc2cc(OCCN(C)C)ccc2[nH]1)CC3CCl (stereo not drawn) [Compound 32, 1-(Chloromethyl)-3-{5-[2-(dimethylamino)ethoxy]indol-2-carbonyl}-N-methyl-5-nitro-1,2-dihydro-3H-benzo[e]indole-7-sulfonamide]	–	21	–	24	2.6 µM	2.7 µM
CN(C)CCOc1ccc2[nH]c(C(=O)N3CC(CCl)c4c3cc([N+](=O)[O-])c3cc(S(=O)(=O)N(C)C)ccc43)cc2c1 (stereo not drawn) [Compound 38, 1-(Chloromethyl)-3-{5-[2-(dimethylamino)ethoxy]indol-2-carbonyl}-N,N-dimethyl-5-nitro-1,2-dihydro-3H-benzo[e]indole-7-sulfonamide]	–	2.4	–	3.6	0.5 µM	1.1 µM

Reference: patent publication US7718688B2, “Nitrobenzindoles and their use in cancer therapy” (Auckland Uniservices Limited, priority 2004, dated 2010)
